Reference: article PMC5607274, “An iterative compound screening contest method for identifying target protein inhibitors using the tyrosine-protein kinase Yes” (Scientific Reports, 2017)

Target: T1, human recombinant Yes [a.a. 2–543 (end)] (Homo sapiens, UniProt P07947)
T1 construct: human recombinant Yes [a.a; 2–543 (end)]; purchased BPS Bioscience 40488
Assay: ADP-Glo kinase assay, inhibition rates of Yes phosphorylation activity (first and second screening)
Assay type: biochemical
Details: 10 μmol L−1 compound; for First screening IR (inhibition rate): mean of n = 4 wells; for Second screening IR (inhibition rate): dissolved from fresh powder, n = 4
Method in brief: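 ADP-Glo luminescence measured inhibition of human recombinant Yes (a.a. 2–543) phosphorylation activity. In the first screen, each compound ran in 4 wells and inhibition rates were averaged. The second screen retested hits as compounds dissolved from fresh powder.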

T1 sequence (P07947 2-543): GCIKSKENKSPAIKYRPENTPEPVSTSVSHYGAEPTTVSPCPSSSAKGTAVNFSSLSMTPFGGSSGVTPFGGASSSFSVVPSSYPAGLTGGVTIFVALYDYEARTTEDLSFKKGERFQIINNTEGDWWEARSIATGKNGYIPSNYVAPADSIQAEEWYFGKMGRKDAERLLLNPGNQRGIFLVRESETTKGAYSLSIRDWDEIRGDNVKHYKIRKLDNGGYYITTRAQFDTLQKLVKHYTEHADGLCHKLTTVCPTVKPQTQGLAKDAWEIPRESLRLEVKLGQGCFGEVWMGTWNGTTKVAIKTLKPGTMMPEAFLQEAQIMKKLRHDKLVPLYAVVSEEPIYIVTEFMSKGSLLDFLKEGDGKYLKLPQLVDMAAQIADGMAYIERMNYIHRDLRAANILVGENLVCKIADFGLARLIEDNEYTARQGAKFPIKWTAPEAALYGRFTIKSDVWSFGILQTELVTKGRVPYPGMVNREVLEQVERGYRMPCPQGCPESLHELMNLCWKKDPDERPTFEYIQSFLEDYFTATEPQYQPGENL

First screening IR (inhibition rate) [%]	Second screening IR (inhibition rate) [%]	SMILES
17	–	NC(=O)C1(CNC(=O)c2cc3c(cc2O)CCCC3)CCOCC1 [Compound Z856541214]
16	–	N#Cc1ccc(C(=O)Nc2nc(-c3ccc(F)c(F)c3)cs2)cc1 [Compound Z28714833]
-4	–	CN(C)C(C)(C)CNC(=O)Cc1c[nH]c2cccc(Br)c12 [Compound Z1509620411]
0	–	Cc1cc(C)c(NC(=O)C2CCN(c3ncnc4sc(C)c(C)c34)CC2)c(C)c1 [Compound Z57042877]
7	–	CCOc1ccc(-n2c(SCC(=O)c3ccc[nH]3)nnc2-c2ccccc2Cl)cc1 [Compound Z18672879]
7	–	Nc1nc(-c2ccccc2)c2cc(C(=O)c3ccccc3O)cnn12 [Compound Z199055452]
-4	–	CC(C)(C)OC(=O)N1CCc2nc(NC(=O)c3csc(-c4ccco4)n3)sc2C1 [Compound Z296452432]
17	–	O=C(CCCSc1nc2ccccc2[nH]1)Nc1ccc(-c2nc3ccccc3[nH]2)cc1 [Compound Z30270226]
3	–	COc1ccccc1N1CCN(Cc2csc(NC(C)=O)n2)CC1 [Compound Z46164581]
14	–	O=C(CCn1[nH]c(=O)ccc1=O)Nc1ccc(-n2cnnn2)cc1 [Compound Z51737757]
13	–	c1ccc(-c2cn(Cc3nc(-c4cccs4)no3)nn2)cc1 [Compound Z1425793872]
12	–	O=C(NCc1ccc(-c2nc3ccccc3s2)o1)c1ccco1 [Compound Z218238558]
-1	–	CS(=O)(=O)CCS(=O)(=O)c1ccc(N)cc1 [Compound Z808591212]
2	–	CC(C)(C)n1nc(C(=O)Nc2cccc(C3SCCCS3)c2)cc1C1CC1 [Compound Z735448522]
-8	–	CC1CN(C(=O)C2CCS(=O)(=O)C2)c2cc(F)ccc2CN1C(=O)OC(C)(C)C (stereo not drawn) [Compound Z1566941984]
22	–	Cc1ccc(Cn2nc(C)c(C(=O)OCc3nc(N)nc(Nc4ccccc4)n3)c2Cl)cc1 [Compound Z89857426]
4	–	Nc1ncnc2sc3c(c12)CCN(C(=O)c1ccc2c(c1)CCC2)C3 [Compound Z168757250]
-6	–	CCN(CC(=O)N1N=C(c2ccc(OC)cc2)CC1c1ccco1)Cc1nc2ccccc2c(=O)[nH]1 (stereo not drawn) [Compound Z46301463]
5	–	CN(c1ccc(OC(=O)C23CC4CC(CC(Cl)(C4)C2)C3)cc1)S(=O)(=O)c1ccccc1F [Compound Z29631119]
14	–	Cc1ccc(-n2c(-c3ccccc3)cn3c4c(=O)n(CCN5CCOCC5)c(=O)n(C)c4nc23)cc1 [Compound Z237731508]
-9	–	CCCCCNS(=O)(=O)CCS(C)(=O)=O [Compound Z1262455598]
17	–	CCOC(=O)c1cc(-c2ccc3c(c2)OCCO3)nc2c1c(C)nn2CCC#N [Compound Z56631515]
32	–	O=C1Nc2ccccc2/C1=C\c1cnn(-c2ccccc2)c1 [Compound Z95045593]

First screening IR (inhibition rate) [%]	Second screening IR (inhibition rate) [%]	SMILES
5	–	CN(C)c1nc(N)nc(COc2ccc3cc(Br)ccc3c2)n1 [Compound Z168931562]
35	-11	Cc1nn(C)c2nc(-c3ccccc3)cc(C(=O)Nc3ccc4nc(CN5CCOCC5)[nH]c4c3)c12 [Compound Z826860216]
-15	–	O=C(CN1CCN(C(=O)c2oc3ccccc3c2CSc2nccc(=O)[nH]2)CC1)N1CCCCC1 [Compound Z915764402]
7	–	O=C(O)c1cc(-c2ccccc2)nc2c1cnn2Cc1ccccc1Cl [Compound Z223844412]
-5	–	O=C(CSc1nnc(COc2ccccc2Cl)n1-c1ccccc1)N1CCc2ccccc2C1 [Compound Z20151781]
-7	–	O=C(COC(=O)c1ccccc1NS(=O)(=O)c1ccc(F)cc1)NC1CCCc2ccccc21 (stereo not drawn) [Compound Z18712040]
-3	–	Cc1ccnc(NCC2CCN(Cc3cccc(C(N)=O)c3)C2)c1 (stereo not drawn) [Compound Z990550860]
2	–	CCS(=O)(=O)N1CCN(S(=O)(=O)C2CCS(=O)(=O)C2)CC1 (stereo not drawn) [Compound Z805634984]
46	–	O=C(CSc1nc2ccccc2c(=O)n1CCCN1CCOCC1)Nc1ccc2ccccc2c1 [Compound Z19837911]
1	–	CN(C)c1ccc(CNC(=O)N2CCN(C3=NS(=O)(=O)c4ccccc43)CC2)cc1 [Compound Z449089632]
51	2	CCOc1ccc(-c2nc3ccccc3c(-c3ccccc3)c2Cl)cc1.Cl [Compound Z57038735]
11	–	CCN(CC)S(=O)(=O)c1ccc(S(=O)(=O)N(C)C(C)C)cc1 [Compound Z45539789]
1	–	CC(Sc1ccc2c(c1)CCC2)C(=O)Nc1sc2c(c1C(N)=O)CCC2 (stereo not drawn) [Compound Z113592752]
1	–	Cc1ccnc(NC(=O)C2CCN(c3ccc(C#N)cc3F)CC2)c1 [Compound Z1002220042]
-10	–	CC(C)N(CCNC(=O)CCc1nnc2n(Cc3ccc(F)cc3)c(=O)c3ccccc3n12)Cc1ccco1 [Compound Z1169067840]
3	–	Cc1cccc(NC2CCN(C(=O)c3c[nH]c4cccc(F)c34)CC2)n1 [Compound Z1538193381]
44	-16	O=C(NCCSCc1ccccc1)Nc1ccc(NC(=O)c2ccco2)cc1 [Compound Z412775020]
2	–	Cl.N#Cc1c(-c2ccc(Cl)cc2)nc2ccccc2c1-c1ccccc1 [Compound Z57989376]
5	–	CC(C)c1cc(C(=O)N(C)C2CCCCC2N(C)C(=O)c2cc(C(C)C)[nH]n2)n[nH]1 (stereo not drawn) [Compound Z1511609753]
5	–	O=C(c1cc(-c2ccccc2)nc2c1cnn2Cc1cccc(F)c1)N1CCC1 [Compound Z117073454]
2	–	Cc1oc(-c2ccsc2)nc1CC(=O)Nc1cc(C(N)=O)n(C)c1 [Compound Z1039455578]
2	–	Cn1nccc1/C=C1\C(=O)Nc2ccccc21 [Compound Z336032014]
0	–	Cc1c(C#N)c(NC(=O)CN2CCN(CC(=O)N3CCCCC3)CC2)n(-c2cccc(F)c2)c1C [Compound Z195846234]

First screening IR (inhibition rate) [%]	Second screening IR (inhibition rate) [%]	SMILES
-3	–	O=C(Cc1ccc(OC(F)F)cc1)N1CCC(c2nc(-c3ccccc3)n[nH]2)CC1 [Compound Z991836758]
10	–	Cc1ccc(CNC(C)(CO)c2cccc(C(F)(F)F)c2)nc1 (stereo not drawn) [Compound Z1426135114]
12	–	Cc1nc(-c2ccncc2)[nH]c(=O)c1CCC(=O)NCc1ccncc1 [Compound Z873001918]
-2	–	FC(F)(F)c1nc(N2CCOCC2)c2cnn(Cc3ccccc3)c2n1 [Compound Z108567148]
17	–	CC(C)c1nc2n(n1)CC(NC(=O)Nc1cc(-c3ccccc3)ns1)CC2 (stereo not drawn) [Compound Z1327803154]
-10	–	CC(C)n1ncc2c(C(=O)Nc3ccccc3)cc(-c3ccccc3)nc21 [Compound Z51820408]
-10	–	Cc1ccc(C(CNC(=O)c2cc(Cl)c[nH]2)N2CCOCC2)o1 (stereo not drawn) [Compound Z254387106]
4	–	c1csc(-c2noc(CSc3nnc(C4CC4)n3C3CC3)n2)c1 [Compound Z90118492]
-16	–	Cc1cc(CN(C)C(=O)NCc2ccc(N3CCCC3=O)cc2)no1 [Compound Z485637938]
43	–	CCN1CCCN(S(=O)(=O)c2ccccc2S(C)(=O)=O)CC1 [Compound Z1127188257]
9	–	Cc1ccc(-c2cc(-c3cccc(C)c3)nc3ccccc23)cc1 [Compound Z1844441892]
5	–	Cc1ccc(-n2c(C)nnc2SCC(=O)Nc2c(C#N)c(C)c(C)n2Cc2ccccc2)cc1 [Compound Z152755906]
20	–	CCCOc1c(Br)cc(C(=O)Nc2cccc(S(=O)(=O)N(CC)CC)c2)cc1OC [Compound Z30220173]
48	–	O=C(c1ccoc1)N1CCN(c2ncnc3cc(-c4ccc(F)cc4)sc23)CC1 [Compound Z373317194]
6	–	CC(C)(C)c1ccc(NC(=O)/C=C/c2cncc(O)c2)cc1 [Compound Z1574815119]
3	–	O=C(Nc1nc2ccccc2[nH]1)c1cc(-c2ccccc2)n[nH]1 [Compound Z184538526]
6	–	NCC1CCCS1(=O)=O (stereo not drawn) [Compound Z1203586543]
-5	–	COc1ccccc1NC(=O)C1=C(C)Nc2nc(SCc3ccccc3)nn2C1c1ccncc1 (stereo not drawn) [Compound Z1227522997]
8	–	O=C(NCC1CCCCC1)c1cc(-c2ccccc2)nc2c1cnn2Cc1ccncc1 [Compound Z108748406]
-3	–	Cc1ccc(-c2c(C)sc3nc(CN4CCN(CC(=O)N5CCCCCC5)CC4)[nH]c(=O)c23)cc1 [Compound Z126044810]
8	–	CC(NC(=O)c1ccc2[nH]cnc2n1)c1ccc(-c2cncnc2)cc1 (stereo not drawn) [Compound Z1669230171]
2	–	COc1ccc(S(=O)(=O)N(C)C2CCS(=O)(=O)C2)cc1 (stereo not drawn) [Compound Z89320750]
11	–	O=C(Nn1cnc2ccccc21)c1cnn(-c2ccccc2F)c1-n1cccc1 [Compound Z339292340]
